# According to patent US8802384B2, “Method or system using biomarkers for the monitoring of a treatment” (priority 2009, dated 2014):
# What was measured:
# [1] = test system: VEGFR2^+pY^+ cells in murine peripheral blood; assay: murine blood samples in vivo study (HepG2-inoculated mice), flow cytometry; details: 50 or 100 mg/kg p.o. for 14 days
# Method: Mice, inoculated HepG2 cells, were randomized for three groups by tumor size and treated with vehicle (control), compound A1 (50 mg/kg, p.o.) or compound A1 (100 mg/kg, p.o.) for 14 days. Mice were sacrificed and whole murine blood samples were collected by aspiration from abdominal aorta or heart. The blood was hemolyzed by an hemolytic agent at room temperature for 10 min. After centrifugation (500 g, 5 min), the cells were washed by 1 mL of staining buffer. The cells were then incubated with 100 μL of staining buffer and 5 μL of VEGFR2-PE antibody for 15 min in the dark. Then, the cells were washed and incubated in 500 μL of Fixation/Permeabilization solution for 20 min and washed by Perm/Wash buffer twice. Then, a mixture of antibodies (PY-100, CD45-PerCP-Cy5.5, 5 μL of each) and phosphatase inhibitor were added and incubated for 30 min in the dark. The cells were washed and analyzed by flow cytometry (FACS Calibur, BD). The data was obtained from Cell Quest software (BD) and analyzed by WinMDI 2.9 (free software).
# [2] = test system: CD34^+CD45^dim peripheral blood cells; assay: Phase I clinical study: CD133/CD117 subpopulations of CD34^+CD45^dim peripheral blood cells, flow cytometry; assay type: in vivo, human
# Method: Whole blood was collected on pre-treatment (day 1), and on day 2, day 8 and day 29 after treatment. The subpopulation of CD34^+CD45^dim peripheral blood cells identified from whole blood was further identified by cell surface markers of CD133 and CD117 using flow cytometry. Whole blood (800 μL) was supplemented with 4.5 mL of 0.2% BSA-PBS and centrifuged for 5 min (1500 rpm). After the removal of the supernatant by aspiration, 4.5 mL of 0.2% BSA-PBS was added and centrifuged. The cell pellet was mixed with 50 μL of human gamma-globulin. Antibodies (CD34-FITC, CD117-PE, CD45-PerCP and CD133-APC) were added and kept for 45 min at 4 C. An hemolytic agent (4.5 mL) was added and incubated for 10 min. After centrifugation (1500 rpm, 5 min), the supernatant was washed twice. Then, 0.2% BSA-PBS (4.5 mL) was added, and the supernatant was removed by centrifugation (1500 rpm, 5 min). The cell pellet was filled up to 800 μL with BSA-PBS and analyzed by flow cytometry. The percentage (quadrants) of CD34^+CD45^dimCD133+/−CD117+/− cells were analyzed.
# HUVEC cells = HUVEC cells experiment: phospho-tyrosine level after VEGF, flow cytometry; assay type: cell-based, Human; details: exposure 3 h, 20 ng/ml VEGF 5 min; A1 and AG1478 1 and 5 μM, 5FU 1 and 5 mM; FIG. 1
# Method: FIG. 1: Effect of different compounds on the phospho-tyrosine level of HUVEC cells treated with VEGF. On the abscissa: 1 is the IgG control, untreated with VEGF and unexposed to an active ingredient; 2 is the control untreated with VEGF and unexposed to an active ingredient; 3 is the control treated with VEGF but unexposed to an active ingredient; 4 is treated with VEGF and exposed to 1 μM of compound A1; 5 is treated with VEGF and exposed to 5 μM of compound A1; 6 is treated with VEGF and exposed to 1 μM of compound AG1478; 7 is treated with VEGF and exposed to 5 μM of compound AG 1478; 8 is treated with VEGF and exposed to 1 mM of compound 5FU; 9 is treated with VEGF and exposed to 5 mM of compound 5FU. HUVEC cells were exposed to compound A1 (1 μM and 5 μM), to the EGFR inhibitor AG1478 (1 μM and 5 μM) and to 5FU (5-fluorouracile, 1 mM and 5 mM) for 3 h and 20 ng/ml of VEGF were added for 5 min before cell collection. Collected cells were washed twice by PBS and centrifugation (300 g, 5 min) in 50 μL of staining buffer. After removal of the supernatant by aspiration, cell pellets were lysed in 250 μL of fixation/permeabilization solution and kept for 20 min on ice. The PY-100 Alexa 488 antibody and phosphatase inhibitor were added. […] The data was obtained from Cell Quest software (BD) and analyzed by WinMDI 2.9 (free software).
# [3] = responders, not significant, FIG. 5A
compound,measurement,setting,value
"CCS(=O)(=O)O.COC(=O)c1ccc2c(c1)NC(=O)/C2=C(\Nc1ccc(N(C)C(=O)CN2CCN(C)CC2)cc1)c1ccccc1 [compound A1, 3-Z-[1-(4-(N-((4-methyl-piperazin-1-yl)-methylcarbonyl)-N-methyl-amino)-anilino)-1-phenyl-methylene]-6-methoxycarbonyl-2-indolinone-monoethanesulphonate]",number of VEGFR2^+CD45^dimpY^+ cells,[1]; FIG. 2,seems to decrease
same,VEGFR2^+pY^+ cells in murine peripheral blood,[1]; FIG. 3,suppressed
same,CD34^+CD45^dimCD133^+CD117^+ cells in responders (stable disease) compared to non-responders,"[2]; after treatment, RES n=12, PD n=4, FIG. 5B",tended to decrease
same,percentage of CD34^+CD45^dimCD133^+CD117^+ cells,"[2]; patients with advanced solid tumors, day 29 compared with pre-treatment, p<0.001, FIG. 4A",significantly increased
same,percentage of CD34^+CD45^dimCD133^−CD117^+ cells,"[2]; patients with advanced solid tumors, day 29 compared with pre-treatment, p<0.01, FIG. 4A",decreased
same,CD34^+CD45^dimCD133^+ cells,"[2]; patients, day 29, FIG. 4B",significantly increased
same,CD34^+CD45^dimCD117^+ cells,"[2]; patients, day Band day 29, FIG. 4C",significantly decreased
same,CD34^+CD45^dimCD117^+ cells in responders (stable disease),[2]; [3],tended to decrease
same,CD34^+CD45^dimCD133^+ cells in responders (stable disease),[2]; [3],tended to decrease
same,phospho-tyrosine levels of HUVEC cells,HUVEC cells,suppressed
